From patent publication US20200121704A1, “METHODS FOR TREATING HYPERTENSION AND ARTERIAL STIFFNESS” (THE REGENTS OF THE UNIVERSITY OF COLORADO, A BODY CORPORATE, priority 2017, published 2020)

Assays:
Type in all cases: in vivo, human
[1] = system: healthy middle-aged and older adults; assay: Treatment-emergent adverse events and tolerability, randomized double blinded placebo controlled crossover study
Procedure: The inventors hypothesized that oral supplementation with the nicotinamide adenine dinucleotide (NAD+) increasing compound, nicotinamide riboside (NR) would reduce blood pressure (BP) and aortic pulse wave velocity (aPWV, a measure of large elastic artery stiffness). This hypothesis was tested in healthy middle-aged and older human adults (65±2 yrs, n=24) in a randomized, placebo-controlled crossover study.
(§1) Sixty subjects were consented for this study. This study was conducted in the Integrative Physiology of Aging Laboratory and the Clinical and Translational Research Center (CTRC) at the University of Colorado Boulder. All blood assays were performed at either Boulder Community Hospital or the University of Colorado Denver Anschutz Medical Campus CTRC Core Laboratory. All testing sessions were performed after an overnight fast and 24-hour abstention from exercise and alcohol consumption. All subjects refrained from all prescription medications for 24 hours and over the counter medications for 48 hours prior to all testing visits.
A randomized, double blinded, placebo controlled crossover design was implemented for this study. Healthy middle-aged and older (55-79 years) adult men and postmenopausal women were recruited from the Boulder/Denver metro area. Subjects were nonsmokers and free of clinical diseases as assessed by a medical history, physical examination, blood chemistry and resting and exercise ECG. […] Four subjects dropped out of the study prior to randomization due to time commitment and one subject was unresponsive to scheduling requests resulting in a total of 30 remaining subjects for randomization. Of these, fifteen subjects were randomized to Group A, which received placebo pills during the first 6 weeks of the study before crossing over to receive NR pills for 6 weeks. The remaining fifteen subjects were randomized to Group B, which received NR pills first followed by placebo. One subject was excluded from Group A due to a change in medication status that no longer met inclusion criteria and two subjects in Group A dropped out of the study due to a complaint of side effects. Two subjects were excluded from Group B due to a change in health or medication status that no longer met inclusion criteria and one subject dropped out of Group B due to a broken ankle, resulting in a total of 24 subjects who completed the trial (FIG. 1). These subjects were well matched by age, sex and baseline characteristics between groups and all baseline values were within normal clinical ranges, as shown in Table 1:
14 treatment-emergent adverse events (AEs) were reported by 7 of the 30 participants enrolled in the study.

[2] = Complete blood count (clinical laboratory values at end of each intervention phase)
Procedure: as §1
(§2) Clinical laboratory values were obtained from blood samples collected at the end of each intervention phase in 21 subjects. Complete blood work was not obtained in three subjects due to a failed catheterization during at least one of the testing phases.

[3] = Comprehensive metabolic panel (blood chemistry, renal function, liver enzymes)
Procedure: as §1, §2

[4] = Total lipid panel
Procedure: as §1, §2

[5] = system: healthy middle-aged and older adults; assay: Carotid-femoral pulse wave velocity (large elastic artery stiffness)
Procedure: Carotid-femoral PWV, the gold-standard assessment of elastic artery stiffness in humans, was measured using transcutaneous tonometry. Pressure waveforms were recorded simultaneously from the carotid and femoral arteries using two identical non-invasive pressure tonometers (SPT-301, Millar Instruments, Houston, Tex., USA). The transit distance was calculated as the distance between the carotid and femoral recording sites, after subtracting the distance between the carotid recording site and the sternal notch. PWV was calculated as the transit distance divided by the time delay between the foot of each pressure wave.

[6] = system: endothelin-1 (ET-1); assay: Circulating endothelin-1 concentration; conditions: compared with placebo
Excerpt: To gain potential insight into the underlying mechanisms by which nicotinamide riboside lowers blood pressure, we assessed plasma concentrations of endothelin-1 (ET-1), a potent vasoconstrictor that is released by the vascular endothelium to regulate vascular smooth muscle tone. […] Thus, nicotinamide riboside may lower blood pressure and arterial stiffness by suppressing ET-1-mediated vasoconstriction.

[7] = NR condition, end of 6-week phase, mean ± SEM, 21 subjects
[8] = NR condition, end of 6-week phase, mean ± SEM, 21 subjects, *P < 0.05 vs. placebo
[9] = end of 6-week phase, mean ± SEM, 21 subjects

With `NC(=O)c1ccc[n+]([C@@H]2O[C@H](CO)[C@@H](O)[C@H]2O)c1` [NR, nicotinamide riboside] the “Drowsiness, # events” value ([1]; NR condition, 6 weeks oral) was 0 (0), the “Drowsiness, # events/patient” value ([1]; NR condition, 6 weeks oral) was 0 (0) and the “Fainting, # events” value ([1]; NR condition, 6 weeks oral) was 0 (0). The “Fainting, # events/patient” value ([1]; NR condition, 6 weeks oral) was 0 (0), the “Flushing/Hot flashes, # events” value ([1]; NR condition, 6 weeks oral) was 1 (1) and the “Flushing/Hot flashes, # events/patient” value ([1]; NR condition, 6 weeks oral) was 1 (1). For the same molecule, the “Headache, # events” value ([1]; NR condition, 6 weeks oral) was 0 (0), the “Headache, # events/patient” value ([1]; NR condition, 6 weeks oral) was 0 (0) and the “Increased Bruising, # events” value ([1]; NR condition, 6 weeks oral) was 1 (1). For the same molecule, the “Increased Bruising, # events/patient” value ([1]; NR condition, 6 weeks oral) was 1 (1), the “Leg cramps, # events” value ([1]; NR condition, 6 weeks oral) was 1 (1) and the “Leg cramps, # events/patient” value ([1]; NR condition, 6 weeks oral) was 1 (1). The “Nausea, # events” value ([1]; NR condition, 6 weeks oral) was 1 (1), the “Nausea, # events/patient” value ([1]; NR condition, 6 weeks oral) was 1 (1) and the “Skin Rash, # events” value ([1]; NR condition, 6 weeks oral) was 1 (1). The “Skin Rash, # events/patient” value ([1]; NR condition, 6 weeks oral) was 1 (1), the “Severity of adverse events” value ([1]; all AEs) was “mild in severity” and the Tolerability ([1]; at the dose tested) was “well tolerated”. For the same molecule, the Severe adverse events ([1]; during the study) was “No severe adverse events occurred”, the “Association of flushing with supplementation” value ([1]; flushing reported in both placebo and NR conditions) was “unlikely associated with NR supplementation” and the HCT [2, 7] was 41.1 ± 0.7%. It also gave an HGB [2, 7] of 13.9 ± 0.2 g/dL, an MCH [2, 7] of 31.2 ± 0.3 pg and an MCHC [2, 7] of 33.8 ± 0.2 g/dL. For the same molecule, the MCV [2, 7] was 92.3 ± 0.9 fL, the RBC [2, 7] was 4.5 ± 0.1 10^6/μL and the RDW [2, 7] was 13.0 ± 0.2%. The WBC [2, 7] was 4.3 ± 0.3 10^3/μL, the basophils absolute [2, 7] was 0.05 ± 0.01 10^3/μL and the eosinophils absolute [2, 7] was 0.14 ± 0.03 10^3/μL. For the same molecule, the lymphocytes absolute [2, 7] was 1.18 ± 0.08 10^3/μL, the lymphocytes relative [2, 7] was 29.5 ± 1.7% and the monocytes absolute [2, 7] was 0.52 ± 0.08 10^3/μL. The monocytes relative [2, 7] was 10.7 ± 0.6%, the neutrophils absolute [2, 7] was 2.41 ± 0.19 10^3/μL and the neutrophils relative [2, 7] was 55.3 ± 1.4%. For the same molecule, the platelet count [2, 7] was 206 ± 14 10^3/μL, the MPV [2, 8] was 10.7 ± 0.2* fL and the basophils relative [2, 8] was 1.3 ± 0.2* %. The eosinophils relative [2, 8] was 2.9 ± 0.5* %, the “Difference between treatment conditions for hematology” value ([2]; NR vs placebo) was “No meaningful differences” and the “All clinical laboratory values versus normal reference range” value ([2]; all clinical laboratory values (Tables 3-5), NR condition) was “remained within the normal reference range”. For the same molecule, the “Relevance of changes in mean platelet volume and relative distribution of white blood cell types” value ([2]; statistically significant difference between conditions, extremely low effect sizes) was “physiologically insignificant”, the “ALT (SGPT)” value [3, 7] was 30.8 ± 2.4 IU/L and the “AST (SGOT)” value [3, 7] was 32.1 ± 1.5 IU/L. For the same molecule, the BUN [3, 7] was 17 ± 1 mg/dL, the CO2 [3, 7] was 26 ± 1 mEq/L and the albumin [3, 7] was 3.6 ± 0.1 g/dL. The alk phosphatase [3, 7] was 63.4 ± 2.9 IU/L, the calcium [3, 7] was 9.2 ± 0.1 mg/dL and the chloride [3, 7] was 104 ± 1 mEq/L. The creatinine [3, 7] was 0.9 ± 0.03 mg/dL, the eGFR [3, 7] was 74 ± 3 ml/min/1.73 m^2 and the glucose [3, 7] was 87 ± 1 mg/dL. For the same molecule, the potassium [3, 7] was 4.2 ± 0.1 mEq/L, the sodium [3, 7] was 139 ± 1 mEq/L and the total bilirubin [3, 7] was 0.8 ± 0.1 mg/dL. The total protein [3, 7] was 6.3 ± 0.1 g/dL, the “Difference between treatment conditions for blood chemistry (including markers of renal function and liver enzymes)” value ([3]; NR vs placebo) was “No meaningful differences” and the “Difference between treatment conditions for blood lipid profiles” value ([4]; NR vs placebo) was “No meaningful differences”. For the same molecule, the HDL-C [4, 9] was 60 ± 5 mg/dL, the LDL-C [4, 9] was 94 ± 5 mg/dL and the N-HDL-C [4, 9] was 111 ± 6 mg/dL. The Total cholesterol [4, 9] was 171 ± 6 mg/dL, the Triglycerides [4, 9] was 90 ± 14 mg/dL and the VLDL-C [4, 9] was 17 ± 3 mg/dL. For the same molecule, the “PWV lowering by baseline blood pressure status” value ([5]; all subjects, regardless of baseline blood pressure status) was “lowered PWV by a similar degree in all subjects”, the “Large elastic artery stiffness, aortic pulse wave velocity (PWV)” value ([5]; following NR supplementation compared with placebo) was “significantly reduced” and the “Serum ET-1 concentrations” value [6] was “lowers serum ET-1 concentrations”.
